Data published in patent US20080171716A1, “NUCLEIC ACID MODULATION OF TOLL-LIKE RECEPTOR-MEDIATED IMMUNE STIMULATION” (Protiva Biotherapeutics, Inc., priority 2006, published 2008).
Entries after “also recorded” stand apart in the source; their conditions may differ. m = 2'-O-methyl; r = 2'-OH (RNA)

Assays:
TLR7 = biological target: T1, TLR7 (Homo sapiens, UniProt Q9NYK1); assay: Loxoribine (TLR7 agonist)-induced IFN-α/IL-6 production in human PBMCs; type: cell-based; details: for reduction of Lox induced IFN-α / reduction of Lox induced IL-6: 300 μM Lox, formulated 2′OMe RNA 1.5 μg/ml (~0.2 μM), 24 h, replicate experiments; for IL-6 levels induced by naked loxoribine / level of IFN-α induced by naked loxoribine: SNALP-encapsulated ssRNA added before naked agonist, supernatant at 24 hr, ELISA
T1 construct: Human PBMCs were isolated from whole blood of healthy donors; endogenous in cells; host or cells: primary human PBMCs from healthy donors
T1 sequence (Q9NYK1 27-1049): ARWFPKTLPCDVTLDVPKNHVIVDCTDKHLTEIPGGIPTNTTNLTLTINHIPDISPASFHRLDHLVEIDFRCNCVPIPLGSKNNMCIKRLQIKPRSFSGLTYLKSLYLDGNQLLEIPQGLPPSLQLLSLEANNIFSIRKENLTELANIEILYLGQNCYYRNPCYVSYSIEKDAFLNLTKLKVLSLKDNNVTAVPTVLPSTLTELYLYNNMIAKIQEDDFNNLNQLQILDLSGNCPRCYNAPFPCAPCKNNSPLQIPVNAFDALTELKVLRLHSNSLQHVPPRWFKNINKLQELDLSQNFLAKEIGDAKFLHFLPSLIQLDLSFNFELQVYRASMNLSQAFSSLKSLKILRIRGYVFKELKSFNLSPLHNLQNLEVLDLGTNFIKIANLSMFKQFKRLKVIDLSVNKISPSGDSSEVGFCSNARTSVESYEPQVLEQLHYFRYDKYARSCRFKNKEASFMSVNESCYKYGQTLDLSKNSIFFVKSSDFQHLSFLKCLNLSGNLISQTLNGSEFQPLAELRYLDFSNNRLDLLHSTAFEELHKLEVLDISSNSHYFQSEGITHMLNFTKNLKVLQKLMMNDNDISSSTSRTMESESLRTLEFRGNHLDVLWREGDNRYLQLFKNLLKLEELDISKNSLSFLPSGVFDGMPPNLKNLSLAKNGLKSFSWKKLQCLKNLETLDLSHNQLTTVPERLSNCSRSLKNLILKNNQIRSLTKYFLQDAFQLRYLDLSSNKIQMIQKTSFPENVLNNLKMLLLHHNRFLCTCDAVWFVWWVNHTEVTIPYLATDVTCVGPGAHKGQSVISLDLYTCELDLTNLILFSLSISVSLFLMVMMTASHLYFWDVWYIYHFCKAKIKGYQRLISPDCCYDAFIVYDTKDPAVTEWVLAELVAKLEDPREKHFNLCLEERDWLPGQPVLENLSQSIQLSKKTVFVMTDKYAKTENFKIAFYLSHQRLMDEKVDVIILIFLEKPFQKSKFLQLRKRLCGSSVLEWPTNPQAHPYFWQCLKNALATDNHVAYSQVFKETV
Procedure: (§1) All RNA molecules used in this study were heated at 90° C. for 3 min. and then placed at 37° C. for 60 min. Non-denaturing PAGE analysis on a 20% polyacrylamide gel was performed to confirm that ssRNA molecules were intact and that no duplexes had formed upon heating. The RNA molecules were encapsulated in a SNALP formulation comprising PEG-cDMA:DLinDMA:cholesterol:DSPC in a 2:40:48:10 mol % ratio (2:40 SNALP), prepared using a syringe press process.
(§2) Fresh human peripheral blood mononuclear cells (PBMCs) were isolated and seeded at about 3×10^5 cells/well in a total volume of 180 μl. Next, 20 μl of the appropriate SNALP diluted in PBS or 10 μl of naked TLR agonist were added to the PBMCs. For time course experiments, PBMCs were pretreated with UmodS ssRNA or a control and the appropriate naked TLR agonist was added at 0, 0.5, or 2 hours after pretreatment. When the SNALP and naked TLR agonist were added separately, the SNALP was added first followed by the naked TLR agonist. At t=24 hr., the cell supernatant was harvested and IFN-α and/or IL-6 levels were determined using ELISA.
(§3) Lipid Encapsulation of RNA and ODN. RNA or ODN were encapsulated in liposomes by a process of spontaneous vesicle formation as described in Judge et al., supra, and Jeffs et al., Pharm. Res., 22:362-372 (2005).
(§4) Cell Isolation and Culture. Human PBMCs were isolated from whole blood of healthy donors by a standard Ficoll-Hypaque density centrifugation. Blood was diluted 1:1 with PBS, layered onto Ficoll-Paque Plus, and centrifuged at 1600 RPM for 30 min. PBMCs were washed in PBS twice followed by resuspension in complete media (RPMI 1640, 10% heat inactivated FBS, 2 mM L-glutamine, and 1% penicillin/streptomycin). PBMCs were plated at 2.5×10^5 cells/well in 96 well plates for cytokine induction assays.
(§5) Loxoribine (InvivoGen; San Diego, Calif.), polyIC (Sigma-Aldrich; St. Louis, Mo.), and formulated nucleic acids were diluted in PBS and added to either human PBMC or Flt3L DC cultures. Cells were incubated 24 h at 37° C. before supernatants were assayed for cytokines by ELISA.
(§6) Cytokine ELISA. All cytokines were quantified using sandwich ELISA kits according to the manufacturer's instructions. These were mouse and human IFN-α (PBL Biomedical; Piscataway, N.J.) and IL-6 (eBioscience; San Diego, Calif.).

TLR7/8 = assay: Cytokine induction in human PBMCs by immunostimulatory RNA, alone or co-formulated with modified ssRNA in the same SNALP/lipid particle; type: cell-based; details: for immunostimulatory effects (IFN-α induction) of ApoB antisense ssRNA when co-formulated / immunostimulatory effects (IFN-α induction) of ApoB siRNA duplex when co-formulated: co-formulated in the same SNALP; for immunostimulatory effects (IFN-α induction) of ApoB antisense ssRNA when co-formulated: 1:1 molar ratio; for immunostimulatory effects (IFN-α induction) of ApoB siRNA duplex when co-formulated: equimolar
Procedure: as §1, §2
The ssRNA molecules used in this study were heated at 90° C. for 3 min. and then placed at 37° C. for 60 min to disrupt any potential secondary structure. Non-denaturing PAGE analysis on a 20% polyacrylamide gel was performed to confirm that ssRNA molecules were intact and that no duplexes had formed upon heating. siRNA duplexes were prepared by annealing equimolar concentrations of two deprotected and desalted ssRNA oligonucleotides using standard procedures. Formation of annealed siRNA duplexes was confirmed by non-denaturing PAGE analysis on a 20% polyacrylamide gel. The RNA molecules were encapsulated in a 2:40 SNALP formulation prepared using a syringe press process.
Fresh human peripheral blood mononuclear cells (PBMCs) were isolated and seeded at about 3×10^5 cells/well in a total volume of 180 μl. Next, 20 μl of the appropriate SNALP diluted in PBS were added to the PBMCs. At t=24 hr., the cell supernatant was harvested and IFN-α and/or IL-6 levels were determined using an enzyme-linked immunosorbent assay (ELISA). For example, IFN-α and IL-6 levels can be measured using a sandwich ELISA kit available from PBL Biomedical (Piscataway, N.J.) and eBioscience (San Diego, Calif.), respectively.
as §3, §4, §5, §6

[1] = human PBMCs, co-encapsulated in equimolar amounts in the same SNALP, 24 hr
[2] = human PBMCs, 24 h, listed as Luc-mU
[3] = human PBMCs, equimolar amounts in the same SNALP, 24 h

Substance	reduction of Lox induced IFN-α (TLR7)	reduction of Lox induced IL-6 (TLR7)	IL-6 levels induced by naked loxoribine (TLR7)	level of IFN-α induced by naked loxoribine (TLR7)	IFN-α production induced by the RNA alone (TLR7/8; human PBMC cultures, lipid-formulated RNA alone, doses 0.1 to 3 μg/ml)	IFN-α levels induced by TLR7/8 agonist RNA40 (TLR7/8; [1])	IL-6 levels induced by TLR7/8 agonist RNA40 (TLR7/8; [1])	immunostimulatory effects (IFN-α induction) of ApoB antisense ssRNA when co-formulated (TLR7/8; human PBMCs, 24 h)	immunostimulatory effects (IFN-α induction) of ApoB antisense ssRNA when co-formulated (TLR7/8; [2])	immunostimulatory effects (IFN-α induction) of ApoB siRNA duplex when co-formulated (TLR7/8; human PBMCs, 24 h)	immunostimulatory effects (IFN-α induction) of ApoB siRNA duplex when co-formulated (TLR7/8; [2])	IFN-α levels induced by β-gal antisense ssRNA when co-encapsulated (TLR7/8; [3])	cytokine production from human PBMCs when co-formulated with immunostimulatory RNA (TLR7/8; human PBMCs, co-formulated with immunostimulatory ssRNA)	IL-6 levels induced by β-gal antisense ssRNA when co-encapsulated (TLR7/8; [3])	IFN-α levels induced by β-gal antisense ssRNA when co-encapsulated (TLR7/8; human PBMCs, equimolar amounts in the same SNALP, 24 h, listed as (mU)21)
Luc UmodS: Luc sense strand ssRNA with 2′OMe at uridines: GAmUmUAmUGmUCCGGmUmUAmUGmUAUU (sense GAUUAUGUCCGGUUAUGUAUU; sugars from the 5' end rrmmrmrmrrrrmmrmrmrrr, backbone not given here)	55+/−16%	62+/−10%	inhibited	dose-dependently decrease; also recorded: inhibited	do not induce measurable IFN-α production	significantly reduce	significantly reduce	abolished	abrogated	significantly reduced	abrogated	abrogated	–	–	–
polyUmod21: 2′OMe-uridine homopolymer of 21 nucleotides in length (UUUUUUUUUUUUUUUUUUUUU; all 2'-O-methyl, backbone not given here)	72+/−5%	80+/−1%	inhibited	inhibited	–	–	–	–	–	–	–	significantly reduced	equally as effective at inhibiting cytokine production	significantly reduced	inhibit
